This passage reports ΔTm results from ChEMBL document CHEMBL1145498, “A systematic interaction map of validated kinase inhibitors with Ser/Thr kinases” (Proc Natl Acad Sci U S A, 2007).

Experiment [1] concerns the target Mitogen-activated protein kinase 3 (Homo sapiens, UniProt P27361).
In experiment [2] the target is Ribosomal protein S6 kinase alpha-3 (Homo sapiens) (UniProt P51812).
Experiment [3] addresses STE20-like serine/threonine-protein kinase (Homo sapiens) (UniProt Q9H2G2).
The target of experiment [4] is Serine/threonine-protein kinase RIO2 (Homo sapiens) (UniProt Q9BVS4).
Serine/threonine-protein kinase RIO2 (Homo sapiens), sequence (Q9BVS4 whole entry, looked up): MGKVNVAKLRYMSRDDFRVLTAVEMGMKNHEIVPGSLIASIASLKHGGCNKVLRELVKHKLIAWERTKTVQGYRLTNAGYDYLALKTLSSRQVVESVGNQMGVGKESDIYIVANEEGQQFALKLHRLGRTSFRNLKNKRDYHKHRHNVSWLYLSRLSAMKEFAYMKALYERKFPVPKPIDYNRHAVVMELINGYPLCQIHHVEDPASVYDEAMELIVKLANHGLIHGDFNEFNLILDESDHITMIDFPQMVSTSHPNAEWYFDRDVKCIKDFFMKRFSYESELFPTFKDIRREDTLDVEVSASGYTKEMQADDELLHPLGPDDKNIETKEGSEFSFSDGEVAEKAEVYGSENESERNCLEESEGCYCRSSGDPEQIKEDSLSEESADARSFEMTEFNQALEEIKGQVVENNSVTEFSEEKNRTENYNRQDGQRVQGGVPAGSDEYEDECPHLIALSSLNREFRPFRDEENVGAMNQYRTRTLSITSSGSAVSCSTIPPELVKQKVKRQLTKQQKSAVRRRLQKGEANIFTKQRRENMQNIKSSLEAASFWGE
The target of experiment [5] is Calcium/calmodulin-dependent protein kinase type 1D (Homo sapiens) (UniProt Q8IU85).
Calcium/calmodulin-dependent protein kinase type 1D (Homo sapiens), sequence (Q8IU85 whole entry, looked up): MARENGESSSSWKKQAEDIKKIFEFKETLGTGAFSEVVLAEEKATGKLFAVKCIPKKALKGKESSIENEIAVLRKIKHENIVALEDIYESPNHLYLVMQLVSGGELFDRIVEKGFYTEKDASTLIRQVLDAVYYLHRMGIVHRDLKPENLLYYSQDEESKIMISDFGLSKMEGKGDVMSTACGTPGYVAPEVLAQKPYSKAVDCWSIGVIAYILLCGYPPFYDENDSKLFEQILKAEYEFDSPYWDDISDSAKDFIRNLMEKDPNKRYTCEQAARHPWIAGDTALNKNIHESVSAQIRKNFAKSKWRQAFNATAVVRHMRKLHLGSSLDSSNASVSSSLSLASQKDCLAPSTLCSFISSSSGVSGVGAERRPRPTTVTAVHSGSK
The target in experiment [6] is Death-associated protein kinase 3 (Homo sapiens) (UniProt O43293).
The target of experiment [7] is Serine/threonine-protein kinase 38 (Homo sapiens) (UniProt Q15208).
Serine/threonine-protein kinase 38 (Homo sapiens), sequence (Q15208 2-465 limits assumed): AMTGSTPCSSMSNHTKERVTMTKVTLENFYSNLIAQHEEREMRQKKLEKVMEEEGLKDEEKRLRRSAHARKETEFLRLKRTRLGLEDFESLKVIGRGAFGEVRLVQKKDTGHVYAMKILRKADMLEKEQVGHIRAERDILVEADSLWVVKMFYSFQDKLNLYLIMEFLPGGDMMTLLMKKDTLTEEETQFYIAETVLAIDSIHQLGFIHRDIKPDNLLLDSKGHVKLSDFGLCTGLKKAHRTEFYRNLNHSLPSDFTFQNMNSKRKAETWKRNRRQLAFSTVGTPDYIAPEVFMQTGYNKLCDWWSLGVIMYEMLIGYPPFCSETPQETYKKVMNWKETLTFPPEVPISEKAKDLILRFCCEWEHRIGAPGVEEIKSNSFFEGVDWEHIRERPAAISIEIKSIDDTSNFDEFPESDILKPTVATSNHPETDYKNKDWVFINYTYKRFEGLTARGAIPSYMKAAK
In experiment [8] the target is Serine/threonine-protein kinase Nek6 (Homo sapiens) (UniProt Q9HC98).
Serine/threonine-protein kinase Nek6 (Homo sapiens), sequence (Q9HC98 whole entry): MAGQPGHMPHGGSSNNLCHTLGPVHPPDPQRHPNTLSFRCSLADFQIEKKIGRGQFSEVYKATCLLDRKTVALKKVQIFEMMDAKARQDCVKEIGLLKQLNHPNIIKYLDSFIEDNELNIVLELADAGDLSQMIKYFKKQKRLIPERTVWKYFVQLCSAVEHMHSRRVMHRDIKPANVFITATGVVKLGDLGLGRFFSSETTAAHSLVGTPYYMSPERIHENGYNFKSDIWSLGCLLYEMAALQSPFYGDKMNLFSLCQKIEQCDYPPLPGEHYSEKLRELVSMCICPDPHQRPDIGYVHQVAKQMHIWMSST
Experiment [9] deals with Dual specificity mitogen-activated protein kinase kinase 2 (Homo sapiens, UniProt P36507).
Dual specificity mitogen-activated protein kinase kinase 2, sequence (P36507 whole entry): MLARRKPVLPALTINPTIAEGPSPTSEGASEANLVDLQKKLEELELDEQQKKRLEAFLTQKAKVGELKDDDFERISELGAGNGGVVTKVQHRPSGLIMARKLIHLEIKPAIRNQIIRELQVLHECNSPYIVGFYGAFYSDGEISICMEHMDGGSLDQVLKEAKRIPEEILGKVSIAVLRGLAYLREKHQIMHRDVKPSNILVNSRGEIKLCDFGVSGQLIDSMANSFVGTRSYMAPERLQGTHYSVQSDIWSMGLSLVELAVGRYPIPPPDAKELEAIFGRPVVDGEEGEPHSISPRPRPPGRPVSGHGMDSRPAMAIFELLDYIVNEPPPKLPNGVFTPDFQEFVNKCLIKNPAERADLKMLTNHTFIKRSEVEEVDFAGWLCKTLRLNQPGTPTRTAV
The target in experiment [10] is cAMP-dependent protein kinase catalytic subunit alpha (Homo sapiens) (UniProt P17612).
The target in experiment [11] is T1, Lymphokine-activated killer T-cell-originated protein kinase (Homo sapiens) (UniProt Q96KB5).
T1 sequence (whole entry): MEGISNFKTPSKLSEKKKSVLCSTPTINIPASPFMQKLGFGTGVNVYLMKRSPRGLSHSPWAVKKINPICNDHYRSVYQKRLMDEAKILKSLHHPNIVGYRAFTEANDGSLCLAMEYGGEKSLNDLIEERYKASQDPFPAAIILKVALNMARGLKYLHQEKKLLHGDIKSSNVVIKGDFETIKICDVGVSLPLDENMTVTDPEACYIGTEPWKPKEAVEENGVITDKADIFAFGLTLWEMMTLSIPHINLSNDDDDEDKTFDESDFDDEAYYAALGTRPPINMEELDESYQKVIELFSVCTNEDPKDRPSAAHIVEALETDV

Experiment [12] addresses Serine/threonine-protein kinase OSR1 (Homo sapiens) (UniProt O95747).
Experiment [13] addresses Cyclin-dependent kinase 6 (Homo sapiens) (UniProt Q00534).
Experiment [14] has as its target T2, Serine/threonine-protein kinase Nek2 (Homo sapiens) (UniProt P51955).
T2 sequence (whole entry): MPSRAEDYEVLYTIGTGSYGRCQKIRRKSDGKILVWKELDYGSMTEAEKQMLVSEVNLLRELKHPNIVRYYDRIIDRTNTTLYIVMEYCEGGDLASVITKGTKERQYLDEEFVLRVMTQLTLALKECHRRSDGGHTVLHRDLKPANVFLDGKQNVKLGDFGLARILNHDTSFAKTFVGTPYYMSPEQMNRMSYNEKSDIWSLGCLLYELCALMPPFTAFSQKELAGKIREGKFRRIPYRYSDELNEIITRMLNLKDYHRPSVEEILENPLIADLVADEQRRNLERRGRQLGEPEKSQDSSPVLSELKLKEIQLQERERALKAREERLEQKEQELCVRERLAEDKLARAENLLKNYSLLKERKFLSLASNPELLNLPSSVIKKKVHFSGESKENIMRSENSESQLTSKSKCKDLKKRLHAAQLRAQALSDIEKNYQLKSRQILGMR

For experiment [15], the target named is Dual specificity protein kinase CLK1 (Homo sapiens) (UniProt P49759).
Dual specificity protein kinase CLK1 (Homo sapiens), sequence (P49759 whole entry, looked up): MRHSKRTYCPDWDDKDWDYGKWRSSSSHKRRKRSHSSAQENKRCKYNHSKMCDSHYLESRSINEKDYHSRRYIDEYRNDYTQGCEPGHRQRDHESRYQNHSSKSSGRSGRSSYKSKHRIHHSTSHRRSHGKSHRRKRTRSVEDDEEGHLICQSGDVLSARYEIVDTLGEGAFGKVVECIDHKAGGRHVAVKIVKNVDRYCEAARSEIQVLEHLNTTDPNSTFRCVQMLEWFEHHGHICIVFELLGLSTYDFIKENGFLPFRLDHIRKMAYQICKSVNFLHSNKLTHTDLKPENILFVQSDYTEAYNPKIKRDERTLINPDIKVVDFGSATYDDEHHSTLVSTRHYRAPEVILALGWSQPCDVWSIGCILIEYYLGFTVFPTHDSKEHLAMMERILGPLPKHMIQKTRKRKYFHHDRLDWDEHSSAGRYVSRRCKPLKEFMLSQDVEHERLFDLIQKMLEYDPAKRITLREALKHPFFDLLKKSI
For experiment [16], the target named is T3, Serine/threonine-protein kinase 4 (Homo sapiens) (UniProt Q13043).
T3 sequence (whole entry): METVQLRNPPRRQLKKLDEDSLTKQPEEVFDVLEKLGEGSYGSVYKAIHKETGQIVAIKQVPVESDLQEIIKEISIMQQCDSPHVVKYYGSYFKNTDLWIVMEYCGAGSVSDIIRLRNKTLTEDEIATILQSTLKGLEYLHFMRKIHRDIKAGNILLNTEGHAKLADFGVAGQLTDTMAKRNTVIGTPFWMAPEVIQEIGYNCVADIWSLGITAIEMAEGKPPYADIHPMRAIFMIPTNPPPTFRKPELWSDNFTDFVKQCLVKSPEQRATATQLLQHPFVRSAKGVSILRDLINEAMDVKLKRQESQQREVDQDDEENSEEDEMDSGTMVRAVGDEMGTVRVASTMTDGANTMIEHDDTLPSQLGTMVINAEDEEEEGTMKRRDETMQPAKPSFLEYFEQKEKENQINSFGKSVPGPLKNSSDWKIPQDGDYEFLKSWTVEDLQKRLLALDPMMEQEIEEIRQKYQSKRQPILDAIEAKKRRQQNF

The target in experiment [17] is Calcium/calmodulin-dependent protein kinase type 1G (Homo sapiens) (UniProt Q96NX5).
Calcium/calmodulin-dependent protein kinase type 1G (Homo sapiens), sequence (Q96NX5 whole entry): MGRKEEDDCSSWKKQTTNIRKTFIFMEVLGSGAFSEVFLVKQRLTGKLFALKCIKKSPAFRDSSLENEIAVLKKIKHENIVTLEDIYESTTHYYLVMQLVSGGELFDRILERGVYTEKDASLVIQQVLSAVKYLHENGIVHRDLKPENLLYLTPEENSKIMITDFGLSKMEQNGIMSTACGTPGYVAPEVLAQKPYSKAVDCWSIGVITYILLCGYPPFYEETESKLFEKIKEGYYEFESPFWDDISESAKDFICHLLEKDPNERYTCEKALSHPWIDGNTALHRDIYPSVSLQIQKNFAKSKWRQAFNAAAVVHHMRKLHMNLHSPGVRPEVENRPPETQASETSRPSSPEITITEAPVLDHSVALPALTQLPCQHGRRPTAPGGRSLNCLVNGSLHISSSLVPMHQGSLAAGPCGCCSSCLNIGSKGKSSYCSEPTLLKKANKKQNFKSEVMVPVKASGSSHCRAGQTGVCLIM
Experiment [18] has as its target Serine/threonine-protein kinase 16 (Homo sapiens) (UniProt O75716).
Experiment [19] deals with T4, 3-phosphoinositide-dependent protein kinase 1 (Homo sapiens) (UniProt O15530).
T4 sequence (whole entry): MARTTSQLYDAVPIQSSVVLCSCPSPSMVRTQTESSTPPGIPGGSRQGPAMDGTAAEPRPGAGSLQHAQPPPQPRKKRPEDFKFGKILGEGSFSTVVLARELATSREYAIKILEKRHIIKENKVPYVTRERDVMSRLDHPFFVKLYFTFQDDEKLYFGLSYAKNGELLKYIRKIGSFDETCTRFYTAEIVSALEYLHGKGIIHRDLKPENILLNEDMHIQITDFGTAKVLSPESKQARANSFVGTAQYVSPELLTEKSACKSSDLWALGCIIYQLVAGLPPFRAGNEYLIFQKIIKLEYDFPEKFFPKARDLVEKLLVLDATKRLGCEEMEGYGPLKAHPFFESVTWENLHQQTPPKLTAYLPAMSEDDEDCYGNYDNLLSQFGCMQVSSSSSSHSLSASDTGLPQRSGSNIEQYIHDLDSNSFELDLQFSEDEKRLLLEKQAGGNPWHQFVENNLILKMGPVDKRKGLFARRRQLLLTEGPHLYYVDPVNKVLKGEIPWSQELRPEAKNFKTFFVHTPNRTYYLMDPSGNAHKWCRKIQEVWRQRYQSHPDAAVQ

Cyclin-dependent kinase 6 (Homo sapiens), sequence (Q00534 whole entry): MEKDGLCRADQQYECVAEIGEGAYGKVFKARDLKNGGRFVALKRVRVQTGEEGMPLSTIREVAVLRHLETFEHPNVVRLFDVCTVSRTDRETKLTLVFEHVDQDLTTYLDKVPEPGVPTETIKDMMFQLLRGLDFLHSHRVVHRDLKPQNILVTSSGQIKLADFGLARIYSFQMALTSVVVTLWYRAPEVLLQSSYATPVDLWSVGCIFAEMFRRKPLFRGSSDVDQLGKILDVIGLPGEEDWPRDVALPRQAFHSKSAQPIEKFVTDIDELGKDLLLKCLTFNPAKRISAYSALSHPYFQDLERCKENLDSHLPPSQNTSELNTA
Serine/threonine-protein kinase 16 (Homo sapiens), sequence (O75716 whole entry): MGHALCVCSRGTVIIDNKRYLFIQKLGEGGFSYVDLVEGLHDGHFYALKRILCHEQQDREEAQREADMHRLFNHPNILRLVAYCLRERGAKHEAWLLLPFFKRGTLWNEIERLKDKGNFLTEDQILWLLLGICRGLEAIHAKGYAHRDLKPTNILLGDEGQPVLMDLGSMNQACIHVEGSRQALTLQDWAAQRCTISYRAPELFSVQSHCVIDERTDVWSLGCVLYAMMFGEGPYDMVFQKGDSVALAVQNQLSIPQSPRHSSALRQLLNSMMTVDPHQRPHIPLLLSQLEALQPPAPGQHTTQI
Mitogen-activated protein kinase 3, sequence (P27361 whole entry): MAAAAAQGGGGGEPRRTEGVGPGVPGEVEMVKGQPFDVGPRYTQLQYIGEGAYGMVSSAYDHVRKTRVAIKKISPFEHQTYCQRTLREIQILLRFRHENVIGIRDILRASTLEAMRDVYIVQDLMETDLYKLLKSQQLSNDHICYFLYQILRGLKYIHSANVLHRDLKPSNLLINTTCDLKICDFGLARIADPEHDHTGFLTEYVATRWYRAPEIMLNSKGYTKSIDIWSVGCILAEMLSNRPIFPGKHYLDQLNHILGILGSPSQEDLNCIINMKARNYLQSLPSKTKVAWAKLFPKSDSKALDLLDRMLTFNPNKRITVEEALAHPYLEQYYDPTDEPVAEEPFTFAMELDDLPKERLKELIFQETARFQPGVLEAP
Ribosomal protein S6 kinase alpha-3 (Homo sapiens), sequence (P51812 whole entry): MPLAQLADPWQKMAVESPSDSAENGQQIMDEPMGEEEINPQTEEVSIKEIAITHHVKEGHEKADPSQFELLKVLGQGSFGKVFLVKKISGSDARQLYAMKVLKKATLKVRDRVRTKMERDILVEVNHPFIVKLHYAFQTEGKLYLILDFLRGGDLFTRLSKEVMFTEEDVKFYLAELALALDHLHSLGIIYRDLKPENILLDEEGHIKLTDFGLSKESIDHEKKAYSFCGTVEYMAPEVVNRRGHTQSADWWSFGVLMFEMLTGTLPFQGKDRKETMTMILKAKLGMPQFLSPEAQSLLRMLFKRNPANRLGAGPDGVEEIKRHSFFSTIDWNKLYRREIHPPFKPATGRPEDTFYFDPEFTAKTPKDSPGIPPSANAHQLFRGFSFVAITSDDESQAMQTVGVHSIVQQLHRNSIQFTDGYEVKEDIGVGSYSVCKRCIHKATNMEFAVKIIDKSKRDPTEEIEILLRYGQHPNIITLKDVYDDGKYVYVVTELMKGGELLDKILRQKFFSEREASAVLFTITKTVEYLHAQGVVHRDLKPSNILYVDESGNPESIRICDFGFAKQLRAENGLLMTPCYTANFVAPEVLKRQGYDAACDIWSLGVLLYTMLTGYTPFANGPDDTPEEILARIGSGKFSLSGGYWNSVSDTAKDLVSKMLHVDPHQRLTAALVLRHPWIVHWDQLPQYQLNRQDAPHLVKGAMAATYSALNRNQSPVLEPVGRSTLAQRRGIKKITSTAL

Take `CCCNC(=O)Nc1ccc(Oc2ncnc3cc(OC)c(OC)cc23)cc1Cl` [KRN-633]: the ΔTm in experiment [1] was 0.5 °C; in experiment [2] it was 5.8 °C; in experiment [3] it was 0.5 °C; in experiment [4] it was 0.2 °C; in experiment [5], 0.5 °C; in [6], 1.3 °C. Moreover, the ΔTm came to 1.6 °C in [7]; 0.8 °C in experiment [8]; 0.2 °C in experiment [9]; 1 °C in experiment [10]; 0.2 °C in experiment [11]; 0.3 °C in experiment [12]. The ΔTm in experiment [13] was 0.6 °C; in experiment [14], -0.3 °C; in [15] it was -1.7 °C; in experiment [16], 0.5 °C; in experiment [17] it was 1 °C; in [18], 0.2 °C. Besides, in experiment [19], the ΔTm was -0.1 °C.
Regarding `COc1cc2ncnc(Nc3ccc(NC(=O)c4ccccc4)cc3)c2cc1OC` [ANILINOQUINAZOLINE1], the ΔTm in experiment [1] is 0.4 °C; in experiment [2] it was 5.5 °C; in experiment [3], 0.1 °C; in experiment [4], 0.6 °C; in experiment [5], 0.7 °C; in [6], 0.5 °C. Besides, the ΔTm in experiment [7] came out at 0.9 °C; in experiment [8], 0.5 °C; in experiment [9] it was 0 °C; in experiment [10] it was 1 °C; in experiment [11], 0.3 °C; in [12], 0.3 °C. The ΔTm in experiment [13] came out at 1.1 °C; in experiment [14] it was 0.3 °C; in experiment [15], 1 °C; in [16], 0.6 °C; in experiment [17] it was 2 °C; in experiment [18] it was 0.4 °C. The ΔTm in experiment [19] worked out at 1.1 °C.
On to `Cc1nc(N)sc1-c1ccnc(Nc2cccc([N+](=O)[O-])c2)n1`, for which the ΔTm in [1] turned out to be 2.7 °C; in experiment [2] it was 5.9 °C; in [3], 10 °C; in experiment [4], 3.6 °C; in experiment [5] it was 2.5 °C; in experiment [6], 8.7 °C. Also, the ΔTm in [7] is 0.6 °C; in experiment [8], 1.4 °C; in experiment [9], 2.7 °C; in [10], 4.8 °C; in experiment [12], 1.2 °C; in experiment [13] it was 4.3 °C. Also, the ΔTm was 2.2 °C in [14]; 7 °C in experiment [15]; 3 °C in experiment [16]; 4.1 °C in experiment [17]; 2.9 °C in experiment [18]; 1.9 °C in experiment [19].
Consider `NCCNc1ncc(C(N)=O)c(Nc2cccc(C(F)(F)F)c2)n1`, for which the ΔTm in experiment [1] is 0.9 °C; in experiment [2], 3.3 °C; in [3], 0.1 °C; in [4], 4.7 °C; in [5], 5.1 °C; in [6], 3.2 °C. Further, the ΔTm is 2.5 °C in experiment [7]; 2 °C in experiment [8]; 5.1 °C in [9]; 2.3 °C in [10]; 0.5 °C in experiment [11]; 5.4 °C in [12]. Moreover, the ΔTm was 1.1 °C in experiment [13]; 0.2 °C in experiment [14]; 2.2 °C in [15]; 0.7 °C in experiment [16]; 5.7 °C in [17]; 1.9 °C in experiment [18]. Also, the ΔTm in [19] is 5.5 °C.
Regarding `O=C(Nc1cccc(Nc2nccc(Nc3cccc(C(F)(F)F)c3)n2)c1)C1CC1` [ANILINOPYRIMIDINE1], the ΔTm in experiment [1] came out at 0.9 °C; in [2], 4.8 °C; in [3], 4.1 °C; in experiment [4] it was 3.7 °C; in [5], 2.8 °C; in experiment [6] it was 6.5 °C. The thermal shift (ΔTm) was found to be 0.4 °C in experiment [7]; 1.7 °C in experiment [8]; 0.8 °C in experiment [9]; 1.3 °C in experiment [10]; 1.2 °C in [12]; 0.8 °C in [13]. Besides, the ΔTm in experiment [14] is 1.3 °C; in [15] it was 1.9 °C; in experiment [16], 0.9 °C; in [17] it was 3.8 °C; in experiment [18], 2.3 °C; in experiment [19], 1.6 °C.
In the case of `O=C(Nc1cccc(Nc2cc(Nc3cccc(C(F)(F)F)c3)ncn2)c1)C1CC1`, the ΔTm is 1.5 °C in experiment [1]; 5.6 °C in [2]; 3.2 °C in experiment [3]; 3.4 °C in [4]; 2.6 °C in experiment [5]; 2.1 °C in [6]. Also, the ΔTm in experiment [7] was 1.5 °C; in experiment [8], -0.4 °C; in [9], 1 °C; in experiment [10], 1.1 °C; in experiment [12], 0.9 °C; in experiment [13] it was 0.1 °C. For the same molecule, the ΔTm in [14] is 2 °C; in [15] it was 1.9 °C; in experiment [16], 1.4 °C; in experiment [17], 3.7 °C; in [18], 3.4 °C; in experiment [19], 1.7 °C.
As for `Cc1ccc(NC2=CC(=O)c3sc(C)nc3C2=O)cc1`, the ΔTm in [1] is -1.5 °C; in experiment [2], -0.5 °C; in experiment [3], -0.6 °C; in experiment [4] it was 0.6 °C; in experiment [5] it was -1.6 °C; in [6], -0.2 °C. Besides, the ΔTm is -1 °C in experiment [7]; -0.6 °C in experiment [8]; -2 °C in experiment [9]; -0.4 °C in [10]; -0.2 °C in experiment [12]; -1.7 °C in experiment [13]. The thermal shift (ΔTm) in experiment [14] is -1.2 °C; in experiment [15], -0.8 °C; in experiment [16], -1.3 °C; in [17], -1.4 °C; in [18], -1.2 °C; in experiment [19], -3.4 °C.
